Measurements: PubChem BioAssay AID248 (DTP/NCI, 2004)
Several values for one entry are separate records, joined by “and”; a condition that tells them apart may be missing. Identical values can stand only once. Toxic doses and inconclusive results are not listed. Rule as the data show it: active = T/C of 150% or more; inactive = T/C below 125%.

Test system: L1210 leukemia ip in BDF1 mice, survival T/C
Experiment: NCI In Vivo Anticancer Drug Screen. Data for tumor model L1210 Leukemia (intraperitoneal) in B6D2F1 (BDF1) mice
Settings: endpoint: mean survival time, higher = longer survival
Experimental: The antitumor activity of compounds was measured in mice bearing transplantable tumors. Survival or tumor size were measured and the results are expressed as the measurement made in the treated group (T) divided by the measurement made in the vehicle treated control group (C). The tumor model used in this assay is L1210 Leukemia (intraperitoneal) in B6D2F1 (BDF1) mice

[1] = dose: 100.0 mg/kg/injection, schedule: Q01DX009 (ip), vehicle: Klucel (hydroxypropylcellulose) (HPC)
[2] = dose: 100.0 mg/kg/injection, schedule: Q04DX002 (ip), vehicle: saline with Tween-80
[3] = dose: 200.0 mg/kg/injection, schedule: Q04DX002 (ip), vehicle: saline with Tween-80
[4] = dose: 400.0 mg/kg/injection, schedule: Q04DX002 (ip), vehicle: saline with Tween-80
[5] = dose: 50.0 mg/kg/injection, schedule: Q04DX002 (ip), vehicle: Klucel (hydroxypropylcellulose) (HPC)
[6] = dose: 100.0 mg/kg/injection, schedule: Q04DX002 (ip), vehicle: Klucel (hydroxypropylcellulose) (HPC)
[7] = dose: 200.0 mg/kg/injection, schedule: Q04DX002 (ip), vehicle: Klucel (hydroxypropylcellulose) (HPC)
[8] = dose: 100.0 mg/kg/injection, schedule: Q01DX001 (ip), vehicle: saline
[9] = dose: 200.0 mg/kg/injection, schedule: Q01DX001 (ip), vehicle: saline
[10] = dose: 400.0 mg/kg/injection, schedule: Q01DX001 (ip), vehicle: saline
[11] = dose: 100.0 mg/kg/injection, schedule: Q04DX003 (ip), vehicle: Klucel (hydroxypropylcellulose) (HPC)
[12] = dose: 100.0 mg/kg/injection, schedule: Q04DX003 (ip), vehicle: saline
[13] = dose: 200.0 mg/kg/injection, schedule: Q01DX009 (ip), vehicle: Klucel (hydroxypropylcellulose) (HPC)
[14] = dose: 200.0 mg/kg/injection, schedule: Q04DX003 (ip), vehicle: Klucel (hydroxypropylcellulose) (HPC)
[15] = dose: 200.0 mg/kg/injection, schedule: Q04DX003 (ip), vehicle: saline
[16] = dose: 400.0 mg/kg/injection, schedule: Q01DX009 (ip), vehicle: Klucel (hydroxypropylcellulose) (HPC)
[17] = dose: 400.0 mg/kg/injection, schedule: Q04DX003 (ip), vehicle: Klucel (hydroxypropylcellulose) (HPC)
[18] = dose: 400.0 mg/kg/injection, schedule: Q04DX003 (ip), vehicle: saline
[19] = dose: 100.0 mg/kg/injection, schedule: Q01DX009 (ip), vehicle: saline with Tween-80
[20] = dose: 100.0 mg/kg/injection, schedule: Q04DX003 (ip), vehicle: saline with Tween-80
[21] = dose: 200.0 mg/kg/injection, schedule: Q04DX003 (ip), vehicle: saline with Tween-80
[22] = dose: 400.0 mg/kg/injection, schedule: Q01DX009 (ip), vehicle: saline with Tween-80
[23] = dose: 400.0 mg/kg/injection, schedule: Q04DX003 (ip), vehicle: saline with Tween-80
[24] = dose: 100.0 mg/kg/injection, schedule: Q01DX001 (ip), vehicle: saline with Tween-80
[25] = dose: 200.0 mg/kg/injection, schedule: Q01DX001 (ip), vehicle: saline with Tween-80
[26] = dose: 200.0 mg/kg/injection, schedule: Q01DX009 (ip), vehicle: saline with Tween-80
[27] = dose: 400.0 mg/kg/injection, schedule: Q01DX001 (ip), vehicle: saline with Tween-80

Measured: T/C

O=C(Nc1ccc(C(Cl)(Cl)Cl)cc1)Nc1cc(Cl)ccc1Cl
inactive: dose: 25.0 mg/kg/injection, schedule: Q01DX009 (ip), vehicle: other 109 % of control | dose: 50.0 mg/kg/injection, schedule: Q01DX009 (ip), vehicle: other 93 % of control | [1] 93 % of control | dose: 100.0 mg/kg/injection, schedule: Q01DX009 (ip), vehicle: other 95 % of control

c1ccc(C(Nc2ccccn2)(c2ccccc2)c2ccccc2)cc1
inactive: [2] 104 % of control | [3] 101 % of control | [4] 93 % of control

O=C1c2ccccc2C(c2ccccc2)C1c1ccccc1 (centres undefined)
inactive: [5] 108 % of control | [6] 94 % of control | [7] 94 % of control

CN(C)N=Nc1cn(C)c(=O)n(C)c1=O
inactive: dose: 150.0 mg/kg/injection, schedule: Q04DX003 (ip), vehicle: water 106 % of control

CCC(C)(C)N
inactive: [8] 91 % of control | [9] 97 % of control | [10] 101 % of control

COc1cc(C2=C3C(=O)OC[C@@H]3Cc3cc4c(cc32)OCO4)cc(OC)c1OC
inactive: [8] 94 % of control | [1] 91 % of control | [11] 95 % of control | [12] 105 % of control | [9] 104 % of control | [13] 94 % of control | [14] 97 % of control | [15] 96 % of control | [10] 93 % of control | [16] 96 % of control | [17] 92 % of control | [18] 101 % of control

CC(C)CC(C)OC(C[N+](=O)[O-])C(Cl)(Cl)Cl (centres undefined)
inactive: [19] 93 % of control | [20] 106 % of control | [21] 104 % of control | [22] 93 % of control | [23] 98 % of control

CCN(CC)C(=S)[S][Sn]([Cl])([c]1ccccc1)[c]1ccccc1
inactive: dose: 5.0 mg/kg/injection, schedule: Q01DX001 (ip), vehicle: other 102 % of control | dose: 10.0 mg/kg/injection, schedule: Q01DX001 (ip), vehicle: other 104 % of control | dose: 20.0 mg/kg/injection, schedule: Q01DX001 (ip), vehicle: other 102 % of control | dose: 40.0 mg/kg/injection, schedule: Q01DX001 (ip), vehicle: other 102 % of control | dose: 80.0 mg/kg/injection, schedule: Q01DX001 (ip), vehicle: other 104 % of control

Cc1ccc(Cl)cc1NC(=O)Nc1ccccc1C(N)=O
inactive: [24] 98 % of control | [19] 100 % of control and 110 % of control | [2] 93 % of control and 102 % of control | [12] 97 % of control | [25] 92 % of control | [26] 109 % of control and 120 % of control | [3] 93 % of control and 98 % of control | [15] 95 % of control | [27] 101 % of control | [22] 105 % of control and 89 % of control | [4] 95 % of control and 102 % of control | [18] 103 % of control

CC(C)=NOS(=O)(=O)c1c(C)cc(C)cc1C
inactive: [5] 98 % of control | [1] 87 % of control | [6] 98 % of control and 89 % of control | [13] 97 % of control | [7] 105 % of control | [16] 97 % of control | dose: 400.0 mg/kg/injection, schedule: Q04DX002 (ip), vehicle: Klucel (hydroxypropylcellulose) (HPC) 92 % of control

Oc1ccc(-c2n[nH]c3c2CCCc2ccccc2-3)cc1
inactive: dose: 12.5 mg/kg/injection, schedule: Q01DX001 (ip), vehicle: saline with Tween-80 101 % of control | dose: 12.5 mg/kg/injection, schedule: Q04DX003 (ip), vehicle: saline with Tween-80 103 % of control | dose: 25.0 mg/kg/injection, schedule: Q01DX001 (ip), vehicle: saline with Tween-80 104 % of control | dose: 25.0 mg/kg/injection, schedule: Q04DX003 (ip), vehicle: saline with Tween-80 106 % of control | dose: 50.0 mg/kg/injection, schedule: Q01DX001 (ip), vehicle: saline with Tween-80 108 % of control | dose: 50.0 mg/kg/injection, schedule: Q04DX003 (ip), vehicle: saline with Tween-80 92 % of control

BrC(Br)c1ccc(C(Br)Br)cc1
inactive: [20] 94 % of control | [21] 100 % of control | [23] 94 % of control

N#C/C(=N\Nc1ccc(S(=O)(=O)O)cc1)C(N)=O
inactive: [12] 104 % of control | [15] 100 % of control | [18] 98 % of control

CC(=O)Nc1cc2ccccc2[n+](C)c1
inactive: dose: 12.5 mg/kg/injection, schedule: Q04DX003 (ip), vehicle: Klucel (hydroxypropylcellulose) (HPC) 94 % of control | dose: 25.0 mg/kg/injection, schedule: Q04DX003 (ip), vehicle: Klucel (hydroxypropylcellulose) (HPC) 98 % of control | dose: 50.0 mg/kg/injection, schedule: Q04DX003 (ip), vehicle: Klucel (hydroxypropylcellulose) (HPC) 96 % of control

CC1CC(=O)Oc2ccc(C(C)(C)C)cc21 (centres undefined)
inactive: [24] 95 % of control | [25] 91 % of control | [27] 95 % of control

CC12CCC3C4CCC(=O)C(O)=C4CCC3C1CCC2OC(=O)CCC1CCCC1 (centres undefined)
inactive: dose: 100.0 mg/kg/injection, schedule: Q01DX009 (sc), vehicle: steriod suspending solution 96 % of control | dose: 200.0 mg/kg/injection, schedule: Q01DX009 (sc), vehicle: steriod suspending solution 107 % of control | dose: 400.0 mg/kg/injection, schedule: Q01DX009 (sc), vehicle: steriod suspending solution 100 % of control

CNO
inactive: [1] 100 % of control | [11] 95 % of control | [13] 97 % of control | [14] 95 % of control | [17] 109 % of control

CC(=O)Nc1ccc(/C=C/C(=O)c2ccc(Cl)cc2)cc1
inactive: [19] 102 % of control | [20] 100 % of control | [26] 89 % of control | [21] 87 % of control | [22] 91 % of control | [23] 90 % of control

O=S(=O)(Cc1ncc2cnccn12)c1ccccc1
inactive: [12] 95 % of control | [15] 103 % of control | [18] 104 % of control

Nc1nc(SCc2ccccn2)c2ncn(C3OC(CO)C(O)C3O)c2n1 (centres undefined)
inactive: dose: 6.25 mg/kg/injection, schedule: Q01DX Z (ip), vehicle: methylcellulose (MC) 106 % of control | dose: 12.5 mg/kg/injection, schedule: Q01DX Z (ip), vehicle: methylcellulose (MC) 104 % of control | dose: 25.0 mg/kg/injection, schedule: Q01DX Z (ip), vehicle: methylcellulose (MC) 112 % of control

CCCCCCCNC(CC(C)C)C(=O)OCC (centres undefined)
inactive: dose: 25.0 mg/kg/injection, schedule: Q04DX002 (ip), vehicle: Klucel (hydroxypropylcellulose) (HPC) 91 % of control | [5] 97 % of control | [6] 94 % of control

CCOC(=O)c1ccc(NC(=O)N(C)N=O)cc1
inactive: dose: 75.0 mg/kg/injection, schedule: Q01DX001 (ip), vehicle: carboxymethylcellulose (CMC) 121 % of control

O=C1C=C(S(=O)(=O)c2ccccc2)C(=O)c2ccccc21
inactive: dose: 75.0 mg/kg/injection, schedule: Q01DX001 (ip), vehicle: other 93 % of control | dose: 150.0 mg/kg/injection, schedule: Q01DX001 (ip), vehicle: other 98 % of control

Cc1ccccc1N1C(N)=NC(N)=NC1(C)C
inactive: dose: 6.25 mg/kg/injection, schedule: Q01DX009 (ip), vehicle: Klucel (hydroxypropylcellulose) (HPC) 89 % of control | dose: 12.5 mg/kg/injection, schedule: Q01DX009 (ip), vehicle: Klucel (hydroxypropylcellulose) (HPC) 91 % of control | dose: 25.0 mg/kg/injection, schedule: Q01DX009 (ip), vehicle: Klucel (hydroxypropylcellulose) (HPC) 100 % of control | dose: 50.0 mg/kg/injection, schedule: Q01DX009 (ip), vehicle: Klucel (hydroxypropylcellulose) (HPC) 96 % of control | dose: 75.0 mg/kg/injection, schedule: Q01DX001 (ip), vehicle: saline 103 % of control
